Laboratory results: patent publication US20250304537A1 (Repare Therapeutics Inc., priority 2022, published 2025)
pIC50: −log10 of the molar value. Read-outs that look alike come from different tables or passages of the source.

System: PKMYT1 (CDK1 pThr14) in FUOV1 cells
Assay: PKMYT1 cell-based activity assay, CDK1 pThr14 AlphaLISA in FUOV1 cells
Conditions: 2 h, read-out: FUOV-1 CDK1 pThr14 IC50
Method: To determine compound IC50 (PKMYT1 cell-based activity assay, CDK1 pThr14 AlphaLISA), FUOV1 cells were plated into a 96-well TC-treated culture plate at 50000 cells/well in a final volume of 100 μL of media. The plates were then allowed to equilibrate in a biological safety cabinet for 30 minutes before being placed in a humidified incubator at 37 C and 5% CO2 overnight. The next day, 2 μL of PKMYT1 inhibitors or DMSO were diluted in 400 μL of warmed culture media in a 96-well block using a Biomek FX liquid handler. Compounds were mixed in media and then 25 μL was dispensed into each well of the 96-well cell plate. Plates were centrifuged at 300 g for 10 seconds and then placed in the incubator for 2 hours. After the 2-hour incubation with compound, media was removed via aspiration using a multichannel pipette. 30 μL of 1× AlphaLISA lysis buffer (Perkin Elmer) supplemented with protease and phosphatase inhibitors as well as 1 mM PMSF, was added to each well. Plates were rotated at 500 g for 20 minutes to facilitate lysis. Plates were then sealed with aluminum foil and frozen at −80° C. for at least 1 hour. Lysates were thawed at 37° C. for 10 minutes, then 10 μL of each lysate was transferred in duplicate to a white 384-well assay plate. Antibody mixture was prepared in 1× AlphaLISA assay buffer (Perkin Elmer) containing antibodies (5 nM final concentration for rabbit pThr14-CDK1 from Abcam #ab58509 and mouse total CDK1 from ThermoFisher Scientific #33-1800). 5 μL of antibody mixture was added to each well of the assay plate. The assay plate was sealed and stored at 4° C. overnight. The next day, AlphaLISA bead mixture (Perkin Elmer) was prepared in 1× AlphaLISA assay buffer. Anti-rabbit IgG Acceptor (Perkin Elmer #AL104C) and anti-mouse IgG Donor beads (Perkin Elmer #AS104D) were prepared to a concentration of 80 μg/ml in assay buffer. 5 μL of bead mixture was added to each well of the assay plate (20 μg/ml final concentration for each bead). The plate was protected from light and incubated for 2 hours at room temperature. After a 2-hour incubation with beads, the plate was read using the Perkin Elmer EnVision Multimode plate reader with excitation at 680 nm and emission at 615 nm.

Structure (SMILES): Cc1ccc2[nH]ncc2c1-c1nc(-c2ccc(F)cc2Nc2ccnnc2)nc(C(N)=O)c1N [Compound 553]
- pIC50 (2 h compound incubation): 6.74

Structure (SMILES): COc1ccccc1Nc1ncccc1-c1nc(C(N)=O)c(N)c(-c2c(C)ccc3[nH]ncc23)n1 [Compound 632]
- pIC50 (2 h compound incubation): 6.22

Structure (SMILES): Cc1ccc2[nH]ncc2c1-c1nc(-c2cccnc2N2CCOCC2)nc(C(N)=O)c1N [Compound 662]
- pIC50 (2 h compound incubation): < 5.00

Structure (SMILES): Cc1cnc(Cl)c(Nc2ncccc2-c2nc(C(N)=O)c(N)c(-c3c(C)ccc4[nH]ncc34)n2)n1 [Compound 744]
- pIC50 (2 h compound incubation): 8.10

Structure (SMILES): Cc1ccnnc1Nc1ncccc1-c1nc(C(N)=O)c(N)c(-c2c(C)ccc3[nH]ncc23)n1 [Compound 563]
- pIC50 (2 h compound incubation): 7.42

Structure (SMILES): Cc1cncc(Nc2cc(F)ccc2-c2nc(C(N)=O)c(N)c(-c3c(C)ccc4[nH]ncc34)n2)c1 [Compound 666]
- pIC50 (2 h compound incubation): 7.42

Structure (SMILES): Cc1ccc2[nH]ncc2c1-c1nc(-c2cccnc2Nc2nc(F)ccc2F)nc(C(N)=O)c1N [Compound 660]
- pIC50 (2 h compound incubation): 8.70

Structure (SMILES): Cc1ccc(-c2nc(C(N)=O)c(N)c(-c3c(C)ccc4[nH]ncc34)n2)c(Nc2nccnc2Cl)n1 [Compound 721]
- pIC50 (2 h compound incubation): 8.40

Structure (SMILES): Cc1ccc2[nH]ncc2c1-c1nc(-c2cccnc2N[C@H]2CCOC2)nc(C(N)=O)c1N [Compound 550]
- pIC50 (2 h compound incubation): 8.15

Structure (SMILES): Cc1ccc2[nH]ncc2c1-c1nc(-c2cccnc2NCC2(C)COC2)nc(C(N)=O)c1N [Compound 661]
- pIC50 (2 h compound incubation): 6.42

Structure (SMILES): Cc1ccc(Nc2ncccn2)c(-c2nc(C(N)=O)c(N)c(-c3c(C)ccc4[nH]ncc34)n2)c1 [Compound 646]
- pIC50 (2 h compound incubation): 7.04

Structure (SMILES): Cc1ccc2[nH]ncc2c1-c1nc(-c2cc(F)cnc2NCCN2CCCC2)nc(C(N)=O)c1N [Compound 853]
- pIC50 (2 hours with compound): 6.27

Structure (SMILES): Cc1cc(F)c2[nH]ncc2c1-c1nc(-c2ccc(F)nc2Nc2nccnc2C(F)F)nc(C(N)=O)c1N [Compound 868]
- pIC50 (2 hours with compound): 6.86

Structure (SMILES): [2H]C([2H])([2H])c1ccc2[nH]ncc2c1-c1nc(-c2cccnc2NC23CC(C#N)(C2)C3)nc(C(N)=O)c1N [Compound 957, 5-amino-2-[2-[(3-cyano-1-bicyclo[1.1.1]pentanyl)amino]-3-pyridyl]-6-[5-(trideuteriomethyl)-1H-indazol-4-yl]pyrimidine-4-carboxamide]
- pIC50 (2 hours with compound): 6.80

Structure (SMILES): [2H]C([2H])([2H])c1ccc2[nH]ncc2c1-c1nc(-c2ccc(C3CC3)nc2Nc2ncccc2F)nc(C(N)=O)c1N [Compound 47]
- pIC50 (2 h incubation): 7.89

Structure (SMILES): Cc1ccc2[nH]ncc2c1-c1nc(-c2ccc(F)nc2Nc2nccnc2Cl)nc(C(N)=O)c1N [Compound 924]
- pIC50 (2 hours with compound): 7.82

Structure (SMILES): Cc1ccc2[nH]ncc2c1-c1nc(-c2ccc(F)cc2Nc2nccc(C(C)(C)C)n2)nc(C(N)=O)c1N [Compound 576]
- pIC50 (2 h compound incubation): 5.34

Structure (SMILES): COc1nccnc1Nc1nc(Cl)ccc1-c1nc(C(N)=O)c(N)c(-c2c(C)ccc3[nH]ncc23)n1 [Compound 826]
- pIC50 (2 hours with compound): 7.92

Structure (SMILES): Cc1ccc2[nH]ncc2c1-c1nc(-c2ccc(F)cc2Nc2cncnc2)nc(C(N)=O)c1N [Compound 541, 5-amino-2-(4-fluoro-2-(pyrimidin-5-ylamino)phenyl)-6-(5-methyl-1H-indazol-4-yl)pyrimidine-4-carboxamide]
- pIC50 (2 h compound incubation): 7.33

Structure (SMILES): Cc1ccc2[nH]ncc2c1-c1nc(-c2ccc(C#N)cc2N[C@H]2C[C@](C)(O)C2)nc(C(N)=O)c1N [Compound 821]
- pIC50 (2 hours with compound): 7.15

Structure (SMILES): Cc1ccc2[nH]ncc2c1-c1nc(-c2cccnc2N[C@@H]2CC[C@@H](O)C2)nc(C(N)=O)c1N [Compound 786]
- pIC50 (2 h compound incubation): 8.05

Structure (SMILES): Cc1cc(Nc2cc(F)ccc2-c2nc(C(N)=O)c(N)c(-c3c(C)ccc4[nH]ncc34)n2)cc(C#N)n1 [Compound 586]
- pIC50 (2 h compound incubation): 7.12

Structure (SMILES): Cc1ccc2[nH]ncc2c1-c1nc(-c2ccc(F)nc2Nc2ncccc2C#N)nc(C(N)=O)c1N [Compound 934]
- pIC50 (2 hours with compound): 7.92

Structure (SMILES): Cc1ccc2[nH]ncc2c1-c1nc(-c2cc(F)ncc2NC2CC(F)(F)C2)nc(C(N)=O)c1N [Compound 844]
- pIC50 (2 hours with compound): 7.42

Structure (SMILES): Cc1ccc2[nH]ncc2c1-c1nc(-c2cc(F)cnc2N[C@@H]2CCOC[C@H]2O)nc(C(N)=O)c1N [Compound 799, 5-amino-2-(5-fluoro-2-(((3S,4R)-3-hydroxytetrahydro-2H-pyran-4-yl)amino)pyridin-3-yl)-6-(5-methyl-1H-indazol-4-yl)pyrimidine-4-carboxamide]
- pIC50 (2 hours with compound): < 5.00

Structure (SMILES): Cc1ccc2[nH]ncc2c1-c1nc(-c2ccc(F)cc2NC2CCOCC2)nc(C(N)=O)c1N [Compound 857]
- pIC50 (2 hours with compound): 7.12

Structure (SMILES): Cc1ccc2n[nH]cc2c1-c1nc(-c2cc(F)cnc2N[C@H]2C[C@](O)(C(F)F)C2)nc(C(N)=O)c1N [Compound 897]
- pIC50 (2 hours with compound): 6.91
